Assay results taken from patent publication US8871796B2, “Diaryl ether derivatives as notch sparing gamma secretase inhibitors” (Merck Sharp & Dohme Corp., priority 2009, dated 2014).
Like-named read-outs stand apart in the source and are kept apart here.

Assays:
[1] = Pharmacokinetics in rats, IV or PO dosing, plasma LC-MS/MS; format: in vivo, Sprague Dawley rats; settings: for clearance / bioavailability / half-life: Sprague Dawley; for clearance: intravenous, read-out: Rat Cl; for AUC(Norm)(0-x): dose-normalised
Experimental: Pharmacokinetic parameters are determined in Sprague Dawley rats, Beagle dogs or Rhesus monkeys by dosing the compounds intravenously (IV) or orally (PO). A dose of 0.25 mg/kg is administered either IV or PO to each subject with a dosing solution of 0.25 mg/ml in a 30:70 v/v mixture of PEG400:40% Captisol®. Plasma samples are collected at 5 min. (IV only), 15 min., 30 min., 1 h, 2 h, 4 h, 6 h, 8 h, 24 h, 48 h, 72 h, 96 h, 120 h, 144 h, and 168 h. Samples are analyzed by LC-MS/MS (API5000™) to determine the concentration in plasma. Briefly, 50 μL plasma is precipitated with 200 μL acetonitrile containing an appropriate internal standard. Samples are filtered, 500 pt of water is added to each sample and 10 μl, of this is injected on a C18 column (2.0 mm×30 mm, 3 μm particle size) and eluted using a gradient LC method with water containing 0.1% formic acid as the aqueous mobile phase, and acetonitrile containing 0.1% formic acid as the organic phase. Electrospray ionization with multiple reaction monitoring is used for MS/MS detection. Plasma concentration of the compounds is determined using a standard curve that was prepared similar to the samples in the respective matrix. Non-compartmental analysis is performed using Watson 7.2 to generate the PK parameters.

[2] = APP processing: AlphaLisa assay of secreted Aβ40 and Aβ42 from SP4CT cells; format: cell-based; settings: Homo sapiens, SH-SY5Y cells expressing amyloid β protein (SP4CT cells)
How it was run: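 Media from compound-treated SP4CT cells (SH-SY5Y expressing amyloid β protein) was assayed by AlphaLisa. Donor beads carried biotinylated 4G8 anti-Aβ antibody; acceptor beads carried G210 (Aβ40) or 12F4 (Aβ42) in separate plates, with luminescence proportional to peptide abundance.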

[3] = plasma, rat, 0.25 mg/kg IV or PO
[4] = read-out: IC50, inhibition of production of Aβ40 peptide
[5] = read-out: IC50, inhibition of production of Aβ42 peptide

Compound | clearance ([1]; rat, 0.25 mg/kg, plasma) [mL/min/kg] | bioavailability [1, 3] [%] | half-life ([1]; rat, 0.25 mg/kg, plasma) [h] | AUC(Norm)(0-x) ([1]; rat, 0.25 mg/kg, plasma) [µM·kg·h/mg] | IC50 [2, 4] [nM] | IC50 [2, 5] [nM] | Rat Cl ([1]; 0.25 mg/kg, plasma) [mL/min/kg] | % F ([1]; rat, 0.25 mg/kg IV or PO) [%] | t1/2 ([1]; rat, 0.25 mg/kg, plasma) [h]
CCn1nc(COc2ccc(F)cc2)cc1-c1cccc(C(C)(C)NS(=O)(=O)NC2CCC2)c1 [Example 2 from WO 2004/089911 A1, reference compound] | 43 | 9 | 2.3 | 0.79 |  |  |  |  | 
CCn1nc(Oc2ccc(C(F)(F)F)cc2)cc1-c1cccc(C(C)(C)NS(=O)(=O)NCC(F)(F)F)c1 [Example 19, N-[1-(3-{1-ethyl-3-[4-(trifluoromethyl)phenoxy]-1H-pyrazol-5-yl}phenyl)-1-methylethyl]-N′-(2,2,2-trifluoroethyl)sulfamide] | 31 | 75 | 9 | 0.96 | < 200 | < 200 |  |  | 
CCn1nc(-c2cccc(C(C)(C)NS(=O)(=O)CC(F)(F)F)c2)cc1CN1CCC(C(F)(F)F)CC1 [Example 23 from WO 2004/089911 A1, reference compound] | 120 |  | 5.4 | 0.25 |  |  |  |  | 
CCn1nc(COc2ccc(C#N)cc2)cc1-c1cccc(C(C)(C)NS(=O)(=O)NC(F)(F)F)c1 [Example 27 from WO 2004/089911 A1, reference compound] | 35 | 28 | 4.8 | 0.92 |  |  |  |  | 
CCn1nc(-c2cccc(C3(NS(=O)(=O)NCC(F)(F)F)COC3)c2)cc1Oc1ccc(C(F)(F)F)cc1 [Example 96, N-[3-(3-{1-ethyl-5-[4-(trifluoromethyl)phenoxy]-1H-pyrazol-3-yl}phenyl)oxetan-3-yl]-N′-(2,2,2-trifluoroethyl)sulfamide] | 41 | 12 | 2.8 | 0.09 | < 200 | < 200 |  |  | 
COCCn1nc(-c2cccc(C3(NS(=O)(=O)CC(F)(F)F)COC3)c2)cc1Oc1ccc(C(F)(F)F)cc1 [Example 141, N-(3-{3-[5-(4-trifluoromethylphenoxy)-1-(2-methoxyethyl)-1H-pyrazol-2-yl]phenyl}oxetan-3-yl)-2,2,2-trifluoroethanesulfonamide] |  |  |  |  | < 200 | < 200 |  |  | 
COCCCn1nc(-c2cccc(C3(NS(=O)(=O)CC(F)(F)F)COC3)c2)cc1Oc1ccc(C(F)(F)F)cc1 [Example 142] |  |  |  |  | < 200 | < 200 |  |  | 
N-(1-{3-[1-ethyl-3-(4-fluorophenoxy)-1H-pyrazol-5-yl]phenyl}-1-methylethyl)-2,2,2-trifluoroethanesulfonamide [Example 53] |  |  |  | 35 |  |  | 1 | 70 | 16
